Series [1] concerns symptoms derived from blepharitis-dry eye like disease. As to the kind of experiment: Symptom score according to the dry eye questionnaire. The series is classed as in vivo, patients. The text has this: FIG. 2. Individual analysis of each patient according to dry eye questionnaire score. All patients completed a questionnaire to evaluate the symptoms derived from blepharitis-dry eye like disease. […] FIG. 3. […] This figure complements FIG. 2. This test was designed (see test design literature) for assessing the symptoms the patient experiences and they can be expressed by means of a score based on questions about these symptoms.

Series [2] concerns diabetic retinopathy. Nature of the series: Case report: supervision of the fundus of the eye in a diabetic patient. It counts as in vivo. Conditions: diabetic patient with high blood glucose; treatment orally and as eye drops from 11 Feb. 2009.
The subject of series [3] is aneurysmal dilatation. Conditions: rats; cited from earlier work.
In series [4] the test system is vascular intimal layer. Conditions: patients taking doxycycline; cited from earlier work.
The subject of series [5] is thrombosis. To be noted: certain groups of hemodialysis patients; cited from earlier work.
The test system of series [6] is chronic anterior and posterior blepharitis. Nature of the series: Case report: patient with blepharitis and glycemic decompensation, clinic examinations. To be noted: same patient; high doses of oral doxycycline prescribed for 20 days, treatment abandoned.
From the text: Treatment with tobramycin and dexamethasone in the form of eye drops and artificial tears was established at that time.

With `C[C@H]1c2cccc(O)c2C(O)=C2C(=O)[C@]3(O)C(=O)/C(=C(/N)O)C(=O)[C@@H](N(C)C)[C@@H]3[C@@H](O)[C@@H]21` [doxycycline, (2Z,4S,4aR,5S,5aR,6R,12aS)-2-(amino-hydroxymethylidene)-4-dimethylamino-5,10,11,12a-tetrahydroxy-6-methyl-4a,5,5a,6-tetrahydro-4H-tetracene-1,3,12-trione], the “symptom score, dry eye questionnaire, each patient” value in series [1] (12 blepharitis patients, before treatment at least moderate, most severe, FIG. 2) is given as “symptoms improved”. Also, the “sum of all the scores in all patients, dry eye questionnaire” value in series [1] (before vs after treatment, FIG. 3) is given as “Symptoms decreased significantly”. For the same compound, the “signs of diabetic retinopathy” value in series [2] is listed as “no signs of diabetic retinopathy”. For the same compound, the aneurysmal dilatation result in series [3] is given as “capable of preventing aneurysmal dilatation without subsequent signs of inflammation”. For the same compound, the “vascular intimal layer proliferation and muscle cell migration” value in series [4] is on record as “less vascular intimal layer proliferation as well as less muscle cell migration”. Also, in series [5], the prevention of thrombosis result is on record as “effective in the prevention of thrombosis”. The “intolerance / side effect” value in series [6] was “an episode of gastritis”.

The values are drawn from patent US20170239307A1, “COMPOSITION OF DOXYCYCLINE IN LIPOSOMES FOR THE PREVENTION, IMPROVEMENT AND/OR TREATMENT OF OCULAR PATHOLOGIES” (AGENCIA PÚBLICA EMPRESARIAL SANITARIA HOSPITAL ALTO …, priority 2014, published 2017).
